Test results reported in paper PMC5579037, “Modification of the response of olfactory receptors to acetophenone by CYP1a2” (Scientific Reports, 2017).

What was measured:
Type in all cases: cell-based
MOR161-2 = biological target: T1, MOR161-2 (Mus musculus, UniProt Q7TRE6); test: CRE-luciferase reporter assay in Hana3A cells; conditions: no CYP co-expressed; RTP1S and M3-R; 3 h, 37 °C; agonist
T1 construct: gene Or8b12; Hana3A cells with RTP1S and M3-R
T1 sequence (Q7TRE6 1-310): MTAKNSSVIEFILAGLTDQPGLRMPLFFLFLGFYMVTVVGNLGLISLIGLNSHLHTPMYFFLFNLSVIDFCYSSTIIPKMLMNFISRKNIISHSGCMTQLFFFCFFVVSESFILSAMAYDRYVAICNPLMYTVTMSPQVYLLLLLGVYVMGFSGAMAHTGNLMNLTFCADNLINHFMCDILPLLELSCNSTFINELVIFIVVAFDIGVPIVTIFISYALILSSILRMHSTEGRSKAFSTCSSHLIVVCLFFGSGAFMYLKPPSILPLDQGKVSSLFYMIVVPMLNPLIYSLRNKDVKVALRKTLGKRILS

MOR164-2 = biological target: T2, MOR164-2 (Mus musculus, UniProt Q7TRB9); test: CRE-luciferase reporter assay in Hana3A cells; conditions: no CYP co-expressed; RTP1S and M3-R; 3 h, 37 °C; agonist
T2 construct: gene Or8b56; ORF from mouse genomic DNA, N-terminal Rho-tag, pCI; Hana3A cells with RTP1S and M3-R
T2 sequence (Q7TRB9 1-317): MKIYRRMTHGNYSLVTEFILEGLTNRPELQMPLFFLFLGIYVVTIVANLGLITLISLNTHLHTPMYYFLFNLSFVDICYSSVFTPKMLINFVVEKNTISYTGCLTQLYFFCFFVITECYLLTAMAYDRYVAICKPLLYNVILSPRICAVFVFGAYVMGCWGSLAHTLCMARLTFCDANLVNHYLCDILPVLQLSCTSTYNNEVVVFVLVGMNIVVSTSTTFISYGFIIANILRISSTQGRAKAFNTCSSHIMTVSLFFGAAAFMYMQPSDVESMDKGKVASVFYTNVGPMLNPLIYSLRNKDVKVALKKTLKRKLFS

MOR123-2 = biological target: T3, MOR123-2 (Mus musculus, UniProt E9Q8M2); test: CRE-luciferase reporter assay in Hana3A cells; conditions: no CYP co-expressed; RTP1S and M3-R; 3 h, 37 °C; agonist
T3 construct: gene Or10aa3; ORF from mouse genomic DNA, N-terminal Rho-tag, pCI; Hana3A cells with RTP1S and M3-R
T3 sequence (E9Q8M2 1-312): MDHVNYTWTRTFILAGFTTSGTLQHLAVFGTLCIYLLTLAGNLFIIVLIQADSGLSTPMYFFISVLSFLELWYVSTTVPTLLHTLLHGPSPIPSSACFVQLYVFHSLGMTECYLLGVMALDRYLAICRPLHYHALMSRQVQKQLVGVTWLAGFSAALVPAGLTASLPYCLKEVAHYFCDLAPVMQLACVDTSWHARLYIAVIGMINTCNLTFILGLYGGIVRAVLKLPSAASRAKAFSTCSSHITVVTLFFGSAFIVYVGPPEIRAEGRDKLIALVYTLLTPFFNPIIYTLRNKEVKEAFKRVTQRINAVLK

CYP1a2 = biological target: T4, CYP1a2 (Mus musculus, UniProt P00186); test: P450-Glo luminescence assay in transfected Hana3A cells; conditions: CD293 medium, 3 h, 37 °C; against mock transformant
T4 construct: cDNA from mouse olfactory epithelium library, pCI vector, expressed in Hana3A cells
T4 sequence (P00186 2-513): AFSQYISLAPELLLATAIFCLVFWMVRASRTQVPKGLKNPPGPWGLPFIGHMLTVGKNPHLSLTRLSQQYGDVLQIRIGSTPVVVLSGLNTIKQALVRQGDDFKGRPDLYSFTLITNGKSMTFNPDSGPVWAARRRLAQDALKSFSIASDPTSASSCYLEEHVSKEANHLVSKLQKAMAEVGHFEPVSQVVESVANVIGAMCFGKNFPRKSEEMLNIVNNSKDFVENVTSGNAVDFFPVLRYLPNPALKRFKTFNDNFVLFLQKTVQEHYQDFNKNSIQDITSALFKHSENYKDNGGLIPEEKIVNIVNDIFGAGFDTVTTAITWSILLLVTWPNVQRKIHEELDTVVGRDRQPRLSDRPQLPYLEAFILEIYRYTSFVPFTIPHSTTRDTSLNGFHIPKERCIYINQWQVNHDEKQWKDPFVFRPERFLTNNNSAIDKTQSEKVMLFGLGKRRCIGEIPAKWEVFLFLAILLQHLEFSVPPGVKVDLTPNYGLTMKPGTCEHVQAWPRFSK

Row | SMILES | CRE-luciferase reporter assay in Hana3A cells (MOR161-2) | CRE-luciferase reporter assay in Hana3A cells (MOR164-2) | CRE-luciferase reporter assay in Hana3A cells (MOR123-2) | P450-Glo luminescence assay in transfected Hana3A cells (CYP1a2)
1 | COC(=O)c1ccccc1O [methyl salicylate] | MOR161-2 showed a larger response to methyl salicylate than acetophenone. | – | – | –
2 | O=C(O)c1ccccc1O [salicylic acid] | Potential intermediates are methyl benzoate and salicylate, and indeed MOR161-2 responded to both of them. | – | – | –
3 | CC(=O)c1ccccc1 [acetophenone] | We compared the response of MOR161-2 against acetophenone and methyl salicylate. | We observed effects of CYPs on the responses of MOR123-2, MOR161-2 and MOR164-2. | We observed effects of CYPs on the responses of MOR123-2, MOR161-2 and MOR164-2. | –
4 | COC(=O)c1ccccc1 [methyl benzoate] | Potential intermediates are methyl benzoate and salicylate, and indeed MOR161-2 responded to both of them. | – | – | –
5 | COc1ccc2nc(C3=NC(C(=O)O)CS3)sc2c1 (stereo not shown) [luciferin-ME] | – | – | – | Functional expression of CYP1a2 in Hana3A cells was confirmed by the P450-Glo assay using luciferin-ME
